From patent US10738041B2, “Ferroportin inhibitors” (Vifor (International) AG, priority 2015, dated 2020)

System: naïve WT C57BL/6 mice
Experiment: Hypoferremia in naïve mice
Assay type: in vivo, mouse
Conditions: Mus musculus, po, 3 h, naïve WT C57BL/6 mice, relative to vehicle, read-out: Serum Iron Reduction at 3 h (%); for inhibition in vivo at 10 mg/kg: Dose 10 mg/kg p.o.; for inhibition in vivo at 30 mg/kg: Dose 30 mg/kg p.o.; for inhibition in vivo at 100 mg/kg: Dose 100 mg/kg p.o.
Method: Female C57BL/6 mice (Janvier, France) at age of 9 weeks were fed a standard diet (Harlan Provimi Kliba 3436) and treated per os (p.o.) with compounds or the corresponding amount of vehicle at a volume of 10 ml/kg body weight. Fpn inhibitors were formulated in 0.5% methylcellulose/water or 20% cremophor EL/water and dosed p.o. in mice at 10, 30 or 100 mg/kg body weight. Three hours later, mice were pre terminally anesthetized in isoflurane chambers and blood was collected by retro-orbital bleeding. Mice were sacrificed by cervical dislocation and spleens, livers and duodena were harvested and used for biomarker analysis. All experiments have been conducted in compliance with the license approved by the responsible veterinarian authorities. Serum was isolated by centrifugation of blood into gel-containing microtainers and serum iron was determined by the MULTIGENT Iron assay (Abbott Diagnostics, 6K95). Eight mice per group were used and one-way ANOVA with Bonferroni's multiple comparison test was performed to analyze the statistical differences between the experimental groups.

SMILES | inhibition in vivo at 10 mg/kg | inhibition in vivo at 30 mg/kg | inhibition in vivo at 100 mg/kg
O=C(NCc1ccccn1)c1csc(CCNCc2nc3ccccc3[nH]2)n1 [Example 12] | 15% | 20% | 45%
O=C(NC1CCc2cccnc21)c1csc(CCNCc2nc3ccccc3[nH]2)n1 (stereo not drawn) [Example 39] | 10% | 20% | 35%
Cc1cnccc1CNC(=O)c1csc(CCNCc2nc3ccccc3[nH]2)n1 [Example 90] | 0% | 0% | 40%
O=C(NCc1ncccc1F)c1csc(CNCCc2nc3ccccc3[nH]2)n1 [Example 118] | 8% | 24% | 49%
O=C(NCc1ncccc1F)c1coc(CCNCc2nc3ccccc3[nH]2)n1 [Example 126] | 7% | 23% | 62%
O=C(NCc1ccccn1)c1coc(CCNCc2nc3ccccc3[nH]2)n1 [Example 137] | -2% | 14% | 25%
O=C(NCc1ncccc1F)c1nc(CCNCCc2nc3ccccc3[nH]2)sc1Cl [Example 154] | 13% | 35% | 56%
O=C(NCc1ncccc1F)c1coc(CCNCCc2nc3c(F)cccc3[nH]2)n1 [Example 228] | 13% | 26% | 55%
O=C(NCc1ncccc1F)c1coc(C2CN(CCc3nc4c(F)cccc4[nH]3)C2)n1 [Example 239] | 12% | 20% | 51%
O=C(NCc1ncccc1F)c1coc(CCNCCc2nc3cc(F)ccc3[nH]2)n1 [Example 250] | 5% | 18% | 40%
O=C(NCc1ncccc1F)c1cncc(C2CN(CCc3nc4ccccc4[nH]3)C2)c1 [compound 237] | 0% | 15% | 27%
